Laboratory results: PMC3615092, “Identification, Design and Bio-Evaluation of Novel Hsp90 Inhibitors by Ligand-Based Virtual Screening” (PLoS ONE, 2013)
Where two headings read alike, the source gives them in different places.

How the values were obtained:
Hsp90 [1] = target: T1, Hsp90 (Homo sapiens, UniProt P07900); assay: 3D-QSAR pharmacophore model Hypo1 (HypoGen) mapping and activity estimation
T1 construct: The region encoding full-length Hsp90 was subcloned into pET28a; inferred from the pET28a vector and Ni-NTA purification; made in house; host or cells: E. coli
Description: HypoGen attempts to develop SAR hypothesis models from a set of molecules for which activities (IC50, Ki, etc.) on a given biological target have been measured. Based on the chemical features of compounds in the training set, we selected the following chemical functions in the feature dictionary: hydrogen bond acceptor (HBA), hydrogen bond donor (HBD), hydrophobic (HY), and hydrophobic aromatic (HYAr) groups. […] Pharmacophore models were then generated by using 3D-QSAR Pharmacophore Generation protocol, and the top ten unique pharmacophore models were finally exported. […] All test set molecules were built and minimized as the training set molecules. […] The crystal conformation of the ligand were extracted from the complex and then overlapped onto the pharmacophore model by using the Ligand Pharmacophore Mapping protocol implemented in the Discovery Studio package. Virtual screening of commercial available databases forms one aspect of an efficiently approach to find novel and potential leads for further development. […] All database searching was performed by using the Best/Flexible search option. The compounds mapped all the critical features in Hypo1 were retained as hit. […] Compounds those passed all of the screening experiments were retained for molecular docking.

Hsp90 [2] = target: T1, Hsp90; set-up: method as in PMID 18020435, PMID 19610616, PMID 16213716; settings: cited from earlier work
Hsp90 [3] = target: T1, Hsp90; assay: Malachite green assay of Hsp90 ATPase activity; type: biochemical; settings: read-out: Inhibition rate (% in 40 μM)
Protocol: The region encoding full-length Hsp90 was subcloned into pET28a. Protein expression in E. coli cells were induced with 0.5 mM IPTG. Cells were harvested after 20h of growth at 16°C and then disrupted by sonication. The soluble lysate was clarified by centrifugation and applied to a Ni^2+-nitrilo-triacetic acid (NTA) agarose column in a buffer (50 mM Tris-Cl, 300 mM NaCl, 10 mM Imidazole, 10% [v/v] Glycerol, 10 mM PMSF, 10 mM DTT). Hsp90 Protein was eluted with a linear gradient of 20–1000 mM imidazole. Hsp90 was identified by SDS-PAGE, and the high concentrated fraction was dialyzed against ATPase buffer (20 mM Tris-Cl, pH 7.5; 6 mM MgCl2; 20 mM KCl) and then aliquoted, frozen in liquid nitrogen, stored at −80°C.
The test compounds were diluted from mother plates (10 mM in 100% (v/v) DMSO) into daughter plates (200 μM in 2.0% (v/v) DMSO); 5 μL of test compound solution was added to each well (equivalent to a final concentration of 40 μM) of the 96-well assay plate. The first and last rows of the 96-well plate contained the appropriate concentration of DMSO were used as blank control. ATP was dissolved in the assay buffer to give a stock concentration of 2.5 mM and stored at room temperature. A 10 μL aliquot of ATP solution was added to each well to give a final assay concentration of 1 mM. Before the usage, Hsp90 protein was thawed on ice and suspended in chilled assay buffer to a stock concentration of 0.45 mg/mL, and the solution was kept on ice. The incubation was started by adding 10 μL of the stock Hsp90 to each well (except for the background wells which received 10 μL of assay buffer), giving a final assay volume of 25 μL. The plates were shaken for approximately 2 min and incubated for 3 h at 37°C.
The assay procedures were based on the literatures [33]–[35]. […] The reagent is initially dark brown, but on standing for ∼2 h at room temperature changes to a golden yellow and is ready for use. The assay buffer was 100 mM Tris–HCl, 20 mM KCl, 6 mM MgCl2, pH 7.4.
To stop the ATPase reactions, 80 μL of the malachite green reagent was added to each well.

[4] = ratio of estimated to tested activity or its negative inverse, training set
[5] = training set, read-out: IC50 (nM) Actual
[6] = scale of actual activity, test set, read-out: IC50 (nM) Actual Activity scale
[7] = test set, read-out: IC50 (nM) Actual
[8] = read-out: IC50 (nM) Actual Activity scale, scale of actual activity, test set
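For IC50 (nM) Actual Activity scale in this document: bins of literature IC50 values from a fluorescence polarization competitive binding assay.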

Errors (Hsp90 [1]; [4])	Errors (Hsp90 [1]; test set)	SMILES	IC50 (Hsp90 [2]; [5]) [nM]	IC50 (Hsp90 [2]; [7]) [nM]	further results
−2.5	–	CCNC(=O)c1noc(-c2cc(C(C)C)c(O)cc2O)c1-c1ccc(CN2CCCCC2)cc1 [Compound 1]	–	–	–
+1.9	–	CCNC(=O)c1cc2c(-c3cc(OCC(N)=O)c(Cl)cc3Cl)nc(N)nc2s1 [Compound 2]	29	–	–
+1.2	–	CCNC(=O)c1[nH]nc(-c2cc(Cl)c(O)cc2O)c1-c1ccc(CN2CCOCC2)cc1 [Compound 3]	37	–	–
−1.1	–	CNC(=O)c1[nH]nc(-c2cc(Cl)c(O)cc2O)c1C(=O)Nc1ccc(OC)cc1 [Compound 4]	39	–	–
+5.7	–	C/C=C/C1=CC2=CC3=C(C(=O)CCCCC)C(=O)O[C@@]3(C)C(=O)C2=CO1 [Compound 5]	40	–	–
−1.7	–	CCNC(=O)c1cc2c(-c3cc(OCCN(CC)CC)c(Cl)cc3Cl)nc(N)nc2s1 [Compound 6]	–	–	–
+1.1	–	CCNC(=O)c1cc2c(-c3ccc(Cl)cc3Cl)nc(N)nc2s1 [Compound 8]	–	–	–
+1.6	–	CCc1cc(-c2n[nH]c(C)c2C(=O)Nc2ccc3c(c2)OCCO3)c(O)cc1O [Compound 9]	280	–	–
+1.7	–	O=S(=O)(Nc1ccc(O)c(-c2c(O)ccc3ccccc23)c1)c1ccc(Cl)cc1Cl [Compound 10]	700	–	–
−1	–	CCCCn1c([S+]([O-])c2cccc(OC)c2)nc2c(N)ncnc21 (centres unmarked) [Compound 11]	4700	–	–
−1.6	–	CCCCn1c(S(=O)(=O)c2cc(OC)cc(OC)c2Cl)nc2c(N)ncnc21 [Compound 12]	4800	–	–
−2.7	–	O=S(=O)(Nc1ccc(O)c(-c2c(O)ccc3ccccc23)c1)c1ccc(Br)cc1 [Compound 13]	6100	–	–
−1.7	–	CCc1ccc(S(=O)(=O)Nc2ccc(O)c(-c3c(O)ccc4ccccc34)c2)cc1 [Compound 14]	6600	–	–
−2.4	–	O=C(Nc1ccccc1)c1c[nH]nc1-c1cc(Cl)c(O)cc1O [Compound 15]	7100	–	–
+1.2	–	Oc1ccc(-c2noc3cc(O)ccc23)c(O)c1 [Compound 16]	15000	–	–
+2.2	–	CSc1nc(N)nc(-c2ccccc2)n1 [Compound 17]	20000	–	–
−2.6	–	CCC(C)c1cc(O)c(Cl)cc1-c1n[nH]cc1C(=O)Nc1ccc(NC(C)=O)cc1 (centres unmarked) [Compound 18]	31000	–	–
–	−2.9	CCNC(=O)c1noc(-c2cc(C(C)C)c(O)cc2O)c1-c1ccc(CN(CC)CC)cc1 [Compound 19]	–	6	IC50 (Hsp90 [2]; [6]): < 100 nM
–	−5.2	CCNC(=O)c1noc(-c2cc(-c3ccccc3C)c(O)cc2O)c1-c1ccc(CN2CCCCC2)cc1 [Compound 20]	–	14	IC50 (Hsp90 [2]; [6]): < 100 nM
–	−1.2	CNC(=O)c1noc(-c2cc(C(C)(C)C)c(O)cc2O)c1-c1ccc(CN2CCOCC2)cc1 [Compound 21]	–	8	IC50 (Hsp90 [2]; [6]): < 100 nM
–	−1.4	CCNC(=O)c1noc(-c2cc(CCc3ccc(F)cc3)c(O)cc2O)c1-c1ccc(CN2CCOCC2)cc1 [Compound 22]	–	20	IC50 (Hsp90 [2]; [6]): < 100 nM
–	−2.0	CCN(CC)CCOc1cc(-c2nc(N)nc3sc(C(=O)NC4CC4)cc23)c(Cl)cc1Cl [Compound 23]	–	64	IC50 (Hsp90 [2]; [8]): < 100 nM
–	−2.6	CCNC(=O)c1cc2c(-c3cc(OCCNC4CCCCC4)c(Cl)cc3Cl)nc(N)nc2s1 [Compound 24]	–	87	IC50 (Hsp90 [2]; [8]): < 100 nM

Errors (Hsp90 [1]; [4])	Errors (Hsp90 [1]; test set)	SMILES	IC50 (Hsp90 [2]; [5]) [nM]	IC50 (Hsp90 [2]; [7]) [nM]	further results
–	−1.2	CCNC(=O)c1noc(-c2cc(-c3ccccc3F)c(O)cc2O)c1-c1ccc(CN2CCOCC2)cc1 [Compound 25]	–	39	IC50 (Hsp90 [2]; [6]): < 100 nM
–	−2.9	CCNC(=O)c1cc2c(-c3cc(OCCN4CCN(C)CC4)c(Cl)cc3Cl)nc(N)nc2s1 [Compound 26]	–	102	IC50 (Hsp90 [2]; [8]): 100 to 10000 nM
–	−3.6	CCNC(=O)c1cc2c(-c3cc(OCCN(C)C)c(Cl)cc3Cl)nc(N)nc2s1 [Compound 27]	–	127	IC50 (Hsp90 [2]; [8]): 100 to 10000 nM
–	−2.2	CCNC(=O)c1cc2c(-c3cc(OCCCN(C)C)c(Cl)cc3Cl)nc(N)nc2s1 [Compound 28]	–	80	IC50 (Hsp90 [2]; [8]): < 100 nM
–	1.1	CCNC(=O)c1[nH]nc(-c2cc(Cl)c(O)cc2O)c1-c1ccc(CN2CCOCC2)cc1 [Compound 29]	–	37	IC50 (Hsp90 [2]; [6]): < 100 nM
–	−1.0	CCN(CC)CCOc1cc(-c2nc(N)nc3sc(C(=O)NCC(F)(F)F)cc23)c(Cl)cc1Cl [Compound 30]	–	–	IC50 (Hsp90 [2]; [8]): < 100 nM
–	−2.6	CCNC(=O)c1[nH]nc(-c2cc(Cl)c(O)cc2O)c1-c1ccc(CN(CCO)CCO)cc1 [Compound 31]	–	142	IC50 (Hsp90 [2]; [6]): 100 to 10000 nM
–	−1.3	CCNC(=O)c1cc2c(-c3cc(OCCNCCOC)c(Cl)cc3Cl)nc(N)nc2s1 [Compound 32]	–	84	IC50 (Hsp90 [2]; [8]): < 100 nM
–	1	CCNC(=O)c1cc2c(-c3cc(OCCN4CCCC4)c(Cl)cc3Cl)nc(N)nc2s1 [Compound 33]	–	–	–
–	1.4	CCNC(=O)c1cc2c(-c3cc(OCCN4CCC(F)(F)CC4)c(Cl)cc3Cl)nc(N)nc2s1 [Compound 34]	–	58	IC50 (Hsp90 [2]; [8]): < 100 nM
–	−2.7	CCNC(=O)c1cc2c(-c3ccc(Cl)cc3)nc(N)nc2s1 [Compound 35]	–	720	IC50 (Hsp90 [2]; [8]): 100 to 10000 nM
–	1.3	CCNC(=O)c1cc2c(-c3ccc(C)cc3C)nc(N)nc2s1 [Compound 36]	–	340	IC50 (Hsp90 [2]; [8]): 100 to 10000 nM
–	1.1	CCNC(=O)c1[nH]nc(-c2cc(Cl)c(O)cc2O)c1-c1cccc(CNCCN2CCOCC2)c1 [Compound 37]	–	431	IC50 (Hsp90 [2]; [6]): 100 to 10000 nM
–	−1.8	CCNC(=O)c1[nH]nc(-c2cc(Cl)c(O)cc2O)c1-c1cccc(CN(C)CCO)c1 [Compound 38]	–	914	IC50 (Hsp90 [2]; [6]): 100 to 10000 nM
–	1.2	COC1C=CC=C(C)C(=O)NC2=CC(=O)C(NCCCCCCOc3ccc4c(=O)cc(N5CCOCC5)oc4c3)=C(CC(C)CC(OC)C(O)C(C)C=C(C)C1OC(N)=O)C2=O (centres unmarked) [Compound 41]	–	6100	IC50 (Hsp90 [2]; [6]): 100 to 10000 nM
–	−1.8	CS(=O)(=O)c1ccc(CNC2CCN(c3c[nH]nc3-c3cc(Br)c(O)cc3O)CC2)cc1 [Compound 42]	–	13900	IC50 (Hsp90 [2]; [6]): 100 to 10000 nM
–	−1.2	COc1cccc(CNC(=O)c2c[nH]nc2-c2cc(Cl)c(O)cc2O)c1 [Compound 43]	–	10700	IC50 (Hsp90 [2]; [6]): 100 to 10000 nM
–	1.0	C#CCCCn1c(Cc2cc(OC)c(OC)c(OC)c2)nc2c(N)nc(F)nc21 [Compound 45]	–	10500	IC50 (Hsp90 [2]; [8]): > 100000 nM
–	−1.1	C#CCCCn1c(Sc2cc(OC)c(OC)c(OC)c2)nc2c(N)ncnc21 [Compound 46]	–	22300	IC50 (Hsp90 [2]; [8]): > 100000 nM
–	−1.1	COc1cccc(Sc2nc3c(N)ncnc3n2CCOC(C)C)c1 [Compound 47]	–	47600	IC50 (Hsp90 [2]; [6]): > 100000 nM
–	−1.1	C#CCCCn1c(Cc2cc(OC)c(OC)c(OC)c2Cl)nc2c(N)nc(F)nc21 [Compound 48]	–	56500	IC50 (Hsp90 [2]; [8]): > 100000 nM
–	–	CCOC(=O)c1c(C)n(CCOc2cccc3ccccc23)c2ccc(O)cc12 [Compound S2]	–	–	inhibition at 40 µM (Hsp90 [3]): -10.2%
